# According to PMC11773474, “Roles for Prlhr/GPR10 and Npffr2/GPR74 in feeding responses to PrRP” (Molecular Metabolism, 2025):
# How the values were obtained:
# [1] = Pharmacokinetics: clearance of p52 from the blood of mice; type: in vivo, mouse; settings: LC-MS, n=6/group
# Method: Supplemental Figure 2 . Quality analysis, in v itro potency, and clearance from the blood of mice for p52. A Analytical RP-HPLC spectrum for p52 was recorded using an Agilent 1260 Infinity system. B Spectrographic data from the analysis of purified p52 by single quadrupolar LC/MS using a Waters Mass Lynx 3100 platform. C Peptide in vitro potencies determined in CHO cells transfected with mouse GPR10 or GPR74 receptor.
# For GPR74 potency was determined for peptide mediated inhibition of forskolin stimulated cAMP accumulation, as described (48). For GPR10 potency was determined in calcium mobilization assay in cells incubated with FLuo- 4AM calcium assay kit and measured on a FLIPR TETRA (Molecular Devices, Sunnyvale, CA). Shown are log(1/EC50) (1/nM) values for cAMP generation via GRP10 and GPR74 for p52, PrRP-31, and NPFF. ND- not detected. D Mice were injected with the indicated doses of p52.
# Blood was drawn at the indicated times after dosing and p52 was quantified by LC-MS.
# Shown are mean +/- STD; individual measurements are shown, as well; n=6/group. ND - […]
# (1 picture or pasted object on this page, not shown here)
# GPR147 = settings: cited from earlier work
# From the text: Thus, PrRP analogs like p52 might act via GPR147 to decrease food intake. It is not clear whether p52 and other PrRP analogs can suppress food intake via GRP10 and/or GPR74 in the absence of GPR147, but it would be interesting to assess this possibility, as well as potential roles for each of these rece ...
p52 detectable in the circulation for at least 4 h ([1]; dose 1.5 mg/kg),time p52 remained detectable in the circulation ([1]; dose 5 mg/kg),Molecule,affinity for GPR147 (GPR147)
not,at least 4 h,CCCCCCCCCCCCCCCC(=O)N[C@@H](CO)C(=O)N[C@@H](CCCNC(=N)N)C(=O)N[C@H](C(=O)N[C@@H](Cc1c[nH]cn1)C(=O)N[C@@H](CCCNC(=N)N)C(=O)N[C@@H](Cc1c[nH]cn1)C(=O)N[C@@H](CO)C(=O)N[C@@H](CCCC)C(=O)N[C@@H](CCC(=O)O)C(=O)N[C@H](C(=O)N[C@@H](CCCNC(=N)N)C(=O)N[C@H](C(=O)N1CCC[C@H]1C(=O)N[C@@H](CC(=O)O)C(=O)N[C@H](C(=O)N[C@@H](CC(N)=O)C(=O)N1CCC[C@H]1C(=O)N[C@@H](C)C(=O)N[C@@H](Cc1c[nH]c2ccccc12)C(=O)N[C@@H](Cc1ccc(O)cc1)C(=O)N[C@@H](C)C(=O)N[C@@H](CO)C(=O)N[C@@H](CCCNC(=N)N)C(=O)NCC(=O)N[C@H](C(=O)N[C@@H](CCCNC(=N)N)C(=O)N1CCC[C@H]1C(=O)N[C@H](C(=O)NCC(=O)N[C@@H](CCCNC(=N)N)C(=O)N[C@@H](Cc1ccc([N+](=O)[O-])cc1)C(N)=O)C(C)C)[C@@H](C)CC)[C@@H](C)CC)[C@@H](C)O)[C@@H](C)CC)[C@@H](C)O [p52],–
–,–,prolactin releasing peptide [PrRP],measurable (albeit low) affinity
